The numbers were not newly measured in patent publication US10328101B2, “Inactivation of papillomavirus” (priority 2001, dated 2019), which cites them from elsewhere.

The data set deals with bovine papillomavirus. The settings on record: iodine in the form of povidone-iodine; low concentrations (title of reference).

For the substance povidone-iodine, the “treating viruses including bovine papillomavirus” value is on record as “effective”.
